# From US12691124B2, “Methods of controlling and improving brain health” (ICAHN SCHOOL OF MEDICINE AT MOUNT SINAI, priority 2019, dated 2026)
# “Also recorded” adds a separate entry of the source.
# Columns and labels:
# C57bl/6 mice = experiment: Kainic acid injection in the hippocampus, cCASP3 immunostaining; assay type: in vivo, mouse; settings: 30 mg/kg i.p. daily 1 week, then kainic acid, 24 h
# Description: C57bl/6 mice were daily treated with IBET858 (30 mg/kg, i.p.) for 1 week, followed by stereotaxic injection of kainic acid in the hippocampus. Mice were perfused 24 hours after kainic acid injection and brains were immunostained for cCASP3 to identify dying cells.
# CK-p25 mice = experiment: p25 (CK-p25) mouse model of Alzheimer's disease; assay type: in vivo; settings: 30 mg/kg i.p. daily
# Description: Cdk^5tetO/+; Camk^2atTa/+ model of Alzheimer's disease uses the Camk2a promoter-driven tetracycline-controlled transactivator system (tTA) to overexpress human p25 fused to GFP in forebrain projection neurons after the removal of doxycycline from the diet. To avoid potential developmental effects of p25 expression, all mice were conceived and raised in the presence of doxycycline until 6-8 weeks of age.
# Immunostaining. Mice were anesthetized with ketamine (120 mg/kg) and xylazine (24 mg/kg) and perfused transcardially with 10 ml PBS and 40 ml 4% paraformaldehyde (Electron Microscopy Sciences). Fixed brains were removed and dehydrated in 5%, 15% and 30% sucrose in PBS. Following dehydration, brains were frozen in Neg-50 (Thermo Scientific) on dry ice and stored at −80° C. until further processing. Brains were cut using a cryostat and 25-μm sections were mounted on Superfrost Plus microscope slides (Fisher Scientific). Slides were stored at −80° C. until staining. Slides were washed with PBS, permeabilized with PBS+0.2% Triton X-100 (PBST) and blocked with 2% normal goat serum in PBST for one hour at room temperature. Slides were incubated with primary antibodies (IBA1, 1:500, 019-19741, Waco; NeuN) in 2% normal goat serum in PBST overnight at 4° C. Slides were washed in PBST and incubated in Alexa Fluor-conjugated secondary antibodies (Alexa Fluor 488-, 546-, and 568- and 647-labeled goat anti-mouse, goat anti-rat, goat anti-chicken, goat anti-rabbit or donkey anti-goat IgGs (H+L); 1:500, Thermo Scientific) in 2% normal goat serum in PBST for 1 h at RT. Slides were washed and cover-slipped using Prolong Gold anti-fade with DAPI (Invitrogen) and dried overnight. Imaging was performed using a Zeiss LSM 780 Confocal Microscope (Zeiss, Oberkochen, DE). For z-stack images, 20-μm z-stack confocal images were acquired at 2-μm intervals, with 40×/1.3 oil objective at 0.6 or 1× zoom. For single plane images, 4.6 μm images were acquired at 20×/0.8 or 40×/1.3 objectives 0.6 or 1× zoom. Image processing was performed using Zen 2011 software (Zeiss).
# Immunoblotting. Mice were anesthetized with CO2 followed by decapitation, and the region of interest was rapidly dissected and frozen in liquid nitrogen and stored at −80° C. until further processing. Samples were sonicated at 4° C. in 1% SDS solution supplemented with protease, Trichostatin A (500 ng/ml) and PhosStop phosphatase inhibitor (Roche, Switzerland), and boiled for ten minutes. The protein concentration was determined using a BCA protein assay kit (ThermoFisherScientific, USA) according to the manufacturer's instructions. Protein samples were diluted in equal volume of 2×LDS sample buffer (Invitrogen) and supplemented with DTT to a final concentration of 200 mM (Sigma).
# Therefore to test the therapeutic effect of IBET858, p25 was overexpressed for two weeks in adult mice to initiate microgliosis and gene expression deficits before administration of daily IBET858 (30 mg/kg, i.p.) treatment for five weeks (FIG. 6A).
# Gene expression levels for Casp3 are unaffected by 5 week IBET858 treatment in vivo. n=3, unpaired two-tailed t-test. […] To generate the p25 neurodegenerative mouse model, tetOCDK5R1/GFP were bred to CamK2a-tTA mice (“CK-p25”). Transgene overexpression was induced at 6 weeks of age by removing doxycycline from the diet. After two weeks, mice were daily injected with IBET858 (30 mg/kg, i.p.) or vehicle (FIG. 24C). Gene expression and protein levels of GFP reflecting transgene expression are unchanged.
# microglia in vivo = experiment: TRAP of microglia from striatum and cerebellum after chronic IBET858; design: species or system mouse; settings: 30 mg/kg i.p. once daily, two weeks
# Description: Cx3Cr1^CreErt2/+; Efl10a mice were orally gavaged 5 times with tamoxifen to induce the expression of gfp-labelled ribosome. Mice were intraperitoneally injected with IBET858 (30 mg/kg) or vehicle control once daily for two weeks. Four hours after either an acute (1 injection) or chronic (2 weeks) injection, mice were decapitated and used for TRAP.
# To better understand how IBET858 affects microglia in their homeostatic state, translating ribosome affinity purification (TRAP) after chronic IBET858 administration was used. TRAP is ideal because it prevents the induction of immediate early and pro-inflammatory genes caused by other isolation protocols which can occlude homeostatic transcriptional profiles. Ayata et al., “Epigenetic Regulation of Brain Region-Specific Microglia Clearance Activity,” Nature Neuroscience 21:1049-1060 (2018), which is hereby incorporated by reference in its entirety. As observed in vitro, microglial lineage is maintained after chronic BET inhibition IBET858 as indicated by expression of Hexb, Fcrls, and Fcer1g in either the striatum or cerebellum (FIG. 4B). […] This is especially important because loss of these region-specific gene expression signatures is highly detrimental to brain function. Ayata et al., “Epigenetic Regulation of Brain Region-Specific Microglia Clearance Activity,” Nature Neuroscience 21:1049-1060 (2018), which is hereby incorporated by reference in its entirety. […] Therefore it is likely that BET inhibition can prevent or modulate pathological microglial activation in vivo as occurs during neurodegeneration.
# primary cortical neurons [1] = experiment: Hypoxia (1% O2) induced neuronal death; assay type: cell-based, mouse; settings: 1% O2, 1 week pretreatment
# Text: (§1) While glutamate toxicity is a widely used and clinically relevant assay, there are other factors that contribute to neuronal death in vivo such as lack of oxygen which occurs after stroke or protein aggregates which are observed in many neurodegenerative disorders. To understand if the observed protective effect is specific to glutamate toxicity, neurons were exposed to either hypoxic (1% O2) environments or Aβ1-43 oligomers (FIGS. 10E and 10F).
# (§2) IBET treatment protects neurons from neurotoxin-induced cell death (FIGS. 22C-22E). Dot plots show the percentage of cells that are propidium iodide negative after different neurotoxic insults when pre-treated with either control or iBET for 1 week. 6 hours and 24 hours after 1 mM glutamate exposure are shown in FIG. 22C; 18 hours, 24 hours, and 48 hours of hypoxia (1% O2) are shown in FIG. 22D; and 48 hours and 72 hours of Aβ1-43 oligomer exposure (10 μM) are shown in FIG. 22E. Two-way repeated measures ANOVA with multiple comparisons, n=3 per group, ***p<0.001. Experiments were repeated a minimum of three times.
# primary cortical neurons [2] = experiment: Aβ1-43 oligomer induced neuronal death; assay type: cell-based, mouse; settings: Aβ1-43 oligomers, 1 week pretreatment
# Text: as §1, §2
smiles,measurement,setting,value
CC(=O)N1c2ccc(-c3ccc(CN4CCCCC4)cc3)cc2[C@H](Nc2ccccc2)CC1C (stereo in doubt) [IBET858],glutamate-induced toxicity in vivo (cCASP3 dying cells),C57bl/6 mice,protects neurons from glutamate-induced toxicity in vivo
same,hippocampal inflammatory genes induced by P25 overexpression,CK-p25 mice; five weeks,suppressed
same,contextual and cued recall (freezing behavior),"CK-p25 mice; five weeks, fear conditioning",indistinguishable from controls
same,hippocampal Psd95 protein level compared to wild type controls,"CK-p25 mice; five weeks, untreated P25 42+/−10.7%",106+/−11.9%
same,hippocampal NeuN protein level compared to wild type controls,"CK-p25 mice; five weeks, untreated P25 49+/−9.3%",105+/−9.8%
same,brain atrophy (loss),"CK-p25 mice; five weeks, untreated p25 27%",17%
same,number of microglia in the hippocampus,"CK-p25 mice; five weeks, untreated p25 713.9+/−106",332.9+/−12.6 Iba1+ cells per mm^2
same,neuronal density in the dentate gyrus,"CK-p25 mice; five weeks, untreated p25 2254+/−223.8",7880+/−587 NeuN+ cells per mm2
same,expression of the p25 transgene,CK-p25 mice; western blot / GFP,does not affect; also recorded: unchanged
same,genes induced by P25 overexpression that are significantly suppressed,CK-p25 mice; hippocampus,365 genes
same,genes suppressed by P25 overexpression that are significantly induced,CK-p25 mice; hippocampus,373 genes
same,"microglial lineage (Hexb, Fcrls, Fcer1g expression) in striatum or cerebellum",microglia in vivo,maintained
same,regional microglial transcriptomic heterogeneity,microglia in vivo,also unaffected
same,"striatal microglial inflammatory genes (Ccr5, Cd180, Gpr84, Wdfy1)",microglia in vivo,suppressed
same,loss of neurons due to hypoxia,primary cortical neurons [1],significantly prevents loss of neurons
same,loss of neurons due to toxic Aβ oligomers,primary cortical neurons [2],significantly prevents loss of neurons
